Results as given in PubChem BioAssay (NCI).
Values joined by “and” are separate entries in the source; they are usually repeats but may differ in a detail not shown here. Identical values can stand only once.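 All cell lines were grown in 96-well plates and treated with compound for 48 hours. GI50 marks 50% less growth. TGI denotes the concentration required for complete inhibition of growth.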

Legend:
Assay in all cases: NCI anticancer screen, dose series, 48 h
[1] = system: HOP-62 NSCLC
[2] = system: CCRF-CEM leukemia
[3] = system: UO-31 renal
[4] = system: OVCAR-4 ovarian
[5] = system: UACC-257 melanoma
[6] = system: M14 melanoma
[7] = system: HT29 colon
[8] = system: SR leukemia
[9] = system: LOX IMVI melanoma
[10] = system: BT-549 breast

Row | Structure (SMILES) | TGI [1] | TGI [2] | TGI [3] | TGI [4] | TGI [5] | TGI [6] | TGI [7] | TGI [8] [µM] | TGI [9] | GI50 [3] [µM] | GI50 [4] [µM] | GI50 [6] | GI50 [7] | GI50 [9] [µM] | GI50 [1] [µM] | GI50 [2] [µM] | GI50 [5] [µM] | GI50 [10] [µM] | TGI [10] [µM] | GI50 [8] [µM]
1 | CCn1c2ccccc2c(=O)c2c(OC)ccc(OC)c21 | > 100 µM | > 100 µM | > 89.9 µM | > 100 µM | > 100 µM | > 100 µM | > 100 µM | > 100 | > 100 µM | – | – | – | – | – | – | – | – | – | – | –
2 | O=[N+]([O-])c1ccc(C(Cl)C(Cl)c2ccc(C(Cl)C(Cl)c3ccc([N+](=O)[O-])cc3[N+](=O)[O-])cc2)c([N+](=O)[O-])c1 (stereo not given) | 6.2 µM | 1.02 µM | – | 8.21 µM and 3.52 µM | 5.77 µM | 1.77 µM and 0.681 µM | 4.57 µM and 1.08 µM | > 62 | 5.96 µM and 1.72 µM | 0.244 | 0.326 | 0.243 µM | 0.313 µM | 0.403 | – | – | – | – | – | –
3 | Cc1ccc(/C=C(\NC(=O)c2ccccc2)c2nc3ccccc3[nH]2)cc1 | > 100 µM | – | > 100 µM | > 100 µM | > 100 µM | > 100 µM | > 100 µM | > 100 | – | – | – | – | – | – | – | – | – | – | – | –
4 | N#Cc1c(NC(=O)c2ccc(F)cc2)sc2c1CCCC2 | > 25 µM | > 25 µM | > 25 µM | > 25 µM | > 25 µM | > 25 µM | > 25 µM | – | > 25 µM | > 25 | > 25 | > 25 µM | > 25 µM | > 25 | > 25 | > 25 | > 25 | > 25 | > 25 | –
5 | CCC1C(C(=O)Nc2ccccc2C)=C(C)NC(C)=C1c1ccccc1C (stereo not given) | > 100 µM | > 100 µM | > 100 µM | > 100 µM | > 100 µM | > 100 µM | > 100 µM | > 76.7 | > 100 µM | – | – | – | – | – | – | – | – | – | – | –
6 | C[C@@H](NS(=O)(=O)c1ccc(NC(=O)c2ccccc2)cc1)C(=O)O | – | > 100 µM | > 100 µM | > 100 µM | > 100 µM | > 100 µM | > 100 µM | – | > 100 µM | – | – | – | – | – | – | – | – | – | – | –
7 | Cn1c2c(c3ccccc31)CCN(CCCCN1CCN(c3ccccc3)CC1)C2=O | > 100 µM | > 79.9 µM | > 80.9 µM | > 100 µM | 26.6 µM | 16.9 µM | 25.4 µM | > 100 | 32.1 µM | – | – | – | – | – | – | – | – | – | – | –
8 | C=CC(=O)N1C[C@@H]2CCOc3c(Cl)c(-c4c(O)cccc4F)c(F)c4ncnc(c34)N2C[C@H]1C | 25.5 µM | > 100 µM | 25.3 µM | 72 µM | 30.3 µM | 27.7 µM | 52.5 µM | – | 24.4 µM | 12.3 | 9.18 | 12.5 µM | 18.6 µM | 12 | 0.0507 | 11.5 | 13 | 2.48 | 12.9 | –
9 | Clc1cc(Cl)c(OCCCCCCN2CCNCC2)c(Cl)c1 | 26 µM | 4.31 µM | 5.44 µM | 15.1 µM | 7.4 µM | 3.65 µM | 4.3 µM | 5.64 | 3.26 µM | 2 | 3.48 | 1.84 µM | 1.96 µM | 1.75 | 10.6 | 1.89 | 2.77 | – | – | 2.16
10 | COC(=O)c1ncc2c(=O)[nH]c3ccccc3c2c1C(=O)OC | > 100 µM | > 100 µM | > 100 µM | > 100 µM | > 100 µM | > 100 µM | > 100 µM | > 100 | > 100 µM | – | – | – | – | – | – | – | – | – | – | –
11 | COCCOC1=CC(=O)c2c(O)ccc(O)c2C1=O | 1.8 µM and 3.31 µM | 7.01 µM and 4.31 µM | 3.83 µM and 3.35 µM | 3.3 µM and 2.97 µM | 0.409 µM and 2.06 µM | 0.353 µM and 2.16 µM | 2.05 µM and 2.64 µM | – | 2.34 µM and 2.13 µM | 1.63 | 1.61 | 0.818 µM | 0.995 µM | 0.914 | 1.9 | 1.92 | 0.626 | – | 3.17 | –
12 | CCN(CC)CC(C)C(=O)/C=C/c1ccc(C)cc1 (stereo not given) | 33.5 µM | 16.1 µM | 26.4 µM | 4.26 µM | 4.1 µM | 4.85 µM | 3.31 µM | 8.19 | 2.69 µM | – | – | – | – | – | – | – | – | – | – | –
13 | NS(=O)(=O)c1ccc(NC(=O)Cc2nc3ccccc3s2)cc1 | 50.9 µM | 47.3 µM | 62.6 µM | 34.9 µM | 29.6 µM | 29.4 µM | 35.4 µM | 71 | – | – | – | – | – | – | – | – | – | – | – | –
14 | CC(C)(C)c1cc(CCCCCCCC2(CCCCCCCc3cc(C(C)(C)C)cc(C(C)(C)C)c3)OC(COCCOCCCCCC#N)C(COCCOCCCCCC#N)O2)cc(C(C)(C)C)c1 (stereo not given) | > 100 µM | > 100 µM | > 100 µM | > 100 µM | > 100 µM | > 100 µM | > 100 µM | – | > 100 µM | – | – | – | – | – | – | – | – | – | – | –
15 | COc1cccc(-c2cc(=O)c3cc(N4CCOCC4)ccc3[nH]2)c1 | > 100 µM | 0.111 µM | > 100 µM | – | > 100 µM | > 100 µM | 0.883 µM and 0.125 µM | 0.741 | – | 0.0713 | – | 0.0365 µM and 0.0749 µM | 0.0359 µM and 0.029 µM | 0.0261 | 0.0791 | 0.0218 | 0.02 | – | – | –
16 | NC1CCCCC1N.O=C1C=C/C(=C(/c2ccc(O)c(Br)c2)c2ccccc2S(=O)(=O)[O-])C=C1Br.O=C1C=C/C(=C(/c2ccc(O)c(Br)c2)c2ccccc2S(=O)(=O)[O-])C=C1Br.[Pt+4] | 9.95 µM | – | > 100 µM | > 100 µM | > 100 µM | > 100 µM | > 100 µM | – | > 100 µM | 8.03 | 2.35 | 7.77 µM | 1.67 µM | 3.18 | 7.88 | – | 5.38 | – | – | –
17 | Cc1ccc(S(=O)(=O)N2CCN(C=S)CC2)cc1 | > 100 µM | > 100 µM | > 100 µM | – | > 100 µM | > 100 µM | > 100 µM | > 100 | > 100 µM | – | – | – | – | – | – | – | – | – | – | –
18 | C=CC(=O)NC(N)=NC#N | 423 µM | > 66.1 µM and 317 µM | 333 µM | 304 µM | 249 µM | 292 µM | 372 µM | – | 273 µM | – | – | – | – | 129 | – | 130 | – | – | – | –
